Experimental data as given in patent publication US20060241172A1, “Benzodioxane and benzodioxolane derivatives and uses thereof” (Wyeth, priority 2005, published 2006).
Counter-ions that a name gives are not always drawn.

A melting point of 178 to 179 °C was found for `CCCNCC1COc2cccc(-c3ccc(Cl)cc3Cl)c2O1` (stereo not shown) (as salt: fumarate) [Compound I-35, N-{[8-(2,4-Dichlorophenyl)-2,3-dihydro-1,4-benzodioxin-2-yl]methyl}propan-1-amine] in this work. A melting point of 199 to 200 °C was found for `CC(C)NCC1COc2cccc(-c3ccccc3Cl)c2O1` (stereo not shown) (as salt: fumarate) [Compound I-36, N-{[8-(2-Chlorophenyl)-2,3-dihydro-1,4-benzodioxin-2-yl]methyl}propan-2-amine] in this work. A melting point of 222 to 223 °C was found for `CC(C)NCC1COc2cccc(-c3ccc(Cl)cc3Cl)c2O1` (stereo not shown) (as salt: fumarate) [Compound I-37, N-{[8-(2,4-Dichlorophenyl)-2,3-dihydro-1,4-benzodioxin-2-yl]methyl}propan-2-amine] in this work. A melting point of 196 to 197 °C was found for `CN(C)CC1COc2cccc(-c3ccccc3Cl)c2O1` (stereo not shown) (as salt: fumarate) [Compound I-38, {[8-(2-Chlorophenyl)-2,3-dihydro-1,4-benzodioxin-2-yl]methyl}dimethylamine] in this work. A melting point of 232 to 233 °C was found for `CN(C)CC1COc2cccc(-c3ccc(Cl)cc3Cl)c2O1` (stereo not shown) (as salt: fumarate) [Compound I-39, {[8-(2,4-Dichlorophenyl)-2,3-dihydro-1,4-benzodioxin-2-yl]methyl}dimethylamine] in this work. A melting point of 167 to 168 °C was found for `C=CCNCC1COc2cccc(-c3ccc(Cl)cc3Cl)c2O1` (stereo not shown) (as salt: fumarate) [Compound I-40, N-{[8-(2,4-Dichlorophenyl)-2,3-dihydro-1,4-benzodioxin-2-yl]methyl}prop-2-en-1-amine] in this work. A melting point of 138 to 140 °C was found for `Clc1ccccc1-c1cccc2c1OC(CNCC1CC1)CO2` (stereo not shown) (as salt: fumarate) [Compound I-41, {[8-(2-Chlorophenyl)-2,3-dihydro-1,4-benzodioxin-2-yl]methyl}(cyclopropylmethyl)-amine] in this work. A melting point of 155 to 156 °C was found for `Clc1ccc(-c2cccc3c2OC(CNCC2CC2)CO3)c(Cl)c1` (stereo not shown) (as salt: fumarate) [Compound I-42, (Cyclopropylmethyl) {[8-(2,4-dichlorophenyl)-2,3-dihydro-1,4-benzodioxin-2-yl]methyl}amine] in this work. A melting point of 148 to 149 °C was found for `Clc1ccccc1-c1cccc2c1OC(CNC1CC1)CO2` (stereo not shown) (as salt: fumarate) [Compound I-43, N-{[8-(2-Chlorophenyl)-2,3-dihydro-1,4-benzodioxin-2yl]methyl}cyclopropanamine] in this work. A melting point of 181 to 182 °C was found for `Clc1ccc(-c2cccc3c2OC(CNC2CC2)CO3)c(Cl)c1` (stereo not shown) (as salt: fumarate) [Compound I-44, N-{[8-(2,4-Dichlorophenyl)-2,3-dihydro-1,4-benzodioxin-2-yl]methyl}cyclopropanamine] in this work. A melting point of 204 to 205 °C was found for `Clc1ccc(-c2cccc3c2OC(CNC2CCC2)CO3)c(Cl)c1` (stereo not shown) (as salt: fumarate) [Compound I-45, N-{[8-(2,4-Dichlorophenyl)-2,3-dihydro-1,4-benzodioxin-2-yl]methyl}cyclobutanamine] in this work. A melting point of 130 to 133 °C was found for `C[C@]1(CN)COc2cccc(-c3ccccc3)c2O1` (as salt: fumarate) [Compound I-48, {[(2S)-2-Methyl-8-phenyl-2,3-dihydro-1,4-benzodioxin-2-yl]methyl}amine] in this work. A melting point of 149 to 152 °C was found for `C[C@]1(CN)COc2cccc(-c3ccccc3Cl)c2O1` (as salt: fumarate) [Compound I-49, {[(2S)-8-(2-Chlorophenyl)-2-methyl-2,3-dihydro-1,4-benzodioxin-2-yl]methyl}amine] in this work. A melting point of 110 to 113 °C was found for `C[C@]1(CN)COc2cccc(-c3cccc(Cl)c3)c2O1` (as salt: fumarate) [Compound I-50, {[(2S)-8-(3-Chlorophenyl)-2-methyl-2,3-dihydro-1,4-benzodioxin-2-yl]methyl}amine] in this work. A melting point of 155 to 158 °C was found for `C[C@]1(CN)COc2cccc(-c3ccc(Cl)cc3)c2O1` (as salt: fumarate) [Compound I-51, {[(2S)-8-(4-Chlorophenyl)-2-methyl-2,3-dihydro-1,4-benzodioxin-2-yl]methyl}amine] in this work. A melting point of 128 to 131 °C was found for `COc1ccccc1-c1cccc2c1O[C@@](C)(CN)CO2` (as salt: fumarate) [Compound I-52, {[(2S)-8-(2-Methoxyphenyl)-2-methyl-2,3-dihydro-1,4-benzodioxin-2-yl]methyl}amine] in this work. A melting point of 158 to 161 °C was found for `C[C@]1(CN)COc2cccc(-c3ccsc3)c2O1` (as salt: fumarate) [Compound I-53, {[(2S)-2-Methyl-8-thien-3-yl-2,3-dihydro-1,4-benzodioxin-2-yl]methyl}amine] in this work. A melting point of 200 to 201 °C was found for `NC[C@H]1COc2cccc(-c3ccccc3Cl)c2O1` (as salt: fumarate) [Compound I-56, 1-[(2S)-8-(2-CHLOROPHENYL)-2,3-DIHYDRO-1,4-BENZODIOXIN-2-YL]METHANAMINE] in this work. A melting point of 205 to 206 °C was found for `NC[C@H]1COc2cccc(-c3ccccc3C(F)(F)F)c2O1` (as salt: fumarate) [Compound I-57, 1-{(2S)-8-[2-(trifluoromethyl)phenyl]-2,3-dihydro-1,4-benzodioxin-2-yl}methanamine] in this work. A melting point of 228 to 230 °C was found for `NC[C@H]1COc2cc(Cl)cc(-c3ccccc3Cl)c2O1` (as salt: hydrochloride) [Compound I-58, (2S)-[6-Chloro-8-(2-chloro-phenyl)-2,3-dihydro-benzo[1,4]dioxin-2-yl]-methylamine] in this work. A melting point of 176 to 178 °C was found for `NC[C@H]1COc2cc(Cl)cc(-c3ccccc3F)c2O1` (as salt: hydrochloride) [Compound I-59, (2S)-[6-Chloro-8-(2-fluoro-phenyl)-2,3-dihydro-benzo[1,4]dioxin-2-yl]-methylamine] in this work. A melting point greater than 245 °C was found for `Cc1ccccc1-c1cc(Cl)cc2c1O[C@@H](CN)CO2` (as salt: hydrochloride) [Compound I-60, (2S)-[6-Chloro-8-(2-methyl-phenyl)-2,3-dihydro-benzo[1,4]dioxin-2-yl]-methylamine] in this work. A melting point of 188 to 189 °C was found for `COc1ccccc1-c1cc(Cl)cc2c1O[C@@H](CN)CO2` (as salt: hydrochloride) [Compound I-61, (2S)-[6-Chloro-8-(2-methoxy-phenyl)-2,3-dihydro-benzo[1,4]dioxin-2-yl]-methylamine] in this work. A melting point of 231 to 233 °C was found for `NC[C@H]1COc2cc(Cl)cc(-c3ccccc3C(F)(F)F)c2O1` (as salt: hydrochloride) [Compound I-62, (2S)-[6-Chloro-8-(2-trifluoromethyl-phenyl)-2,3-dihydro-benzo[1,4]dioxin-2-yl]-methylamine] in this work. A melting point of 197 to 199 °C was found for `COc1cccc(-c2cc(Cl)cc3c2O[C@@H](CN)CO3)c1OC` (as salt: hydrochloride) [Compound I-63, (2S)-[6-Chloro-8-(2,3-dimethoxy-phenyl)-2,3-dihydro-benzo[1,4]dioxin-2-yl]-methyl amine] in this work. A melting point of 140 °C was found for `NC[C@H]1COc2cc(Cl)cc(-c3ccc(Cl)cc3Cl)c2O1` (as salt: hydrochloride) [Compound I-64, (2S)-[6-Chloro-8-(2,4-dichloro-phenyl)-2,3-dihydro-benzo[1,4]dioxin-2-yl]-methyl amine] in this work. A melting point of 110 °C was found for `Cc1cc(Cl)ccc1-c1cc(Cl)cc2c1O[C@@H](CN)CO2` (as salt: hydrochloride) [Compound I-65, (2S)-[6-Chloro-8-(4-chloro-2-methyl-phenyl)-2,3-dihydro-benzo[1,4]dioxin-2-yl]-methylamine] in this work. A melting point of 205 to 207 °C was found for `NC[C@H]1COc2cc(Cl)cc(-c3cc(Cl)ccc3Cl)c2O1` (as salt: hydrochloride) [Compound I-67, (2S)-[6-Chloro-8-(2,5-dichloro-phenyl)-2,3-dihydro-benzo[1,4]dioxin-2-yl]-methyl amine] in this work. A melting point of 230 to 232 °C was found for `COc1ccc(Cl)cc1-c1cc(Cl)cc2c1O[C@@H](CN)CO2` (as salt: hydrochloride) [Compound I-68, (2S)-[6-Chloro-8-(5-chloro-2-methoxy-phenyl)-2,3-dihydro-benzo[1,4]dioxin-2-yl]-methylamine] in this work. A melting point of 220 to 222 °C was found for `Cc1cccc(C)c1-c1cc(Cl)cc2c1O[C@@H](CN)CO2` (as salt: hydrochloride) [Compound I-69, (2S)-[6-Chloro-8-(2,6-dimethyl-phenyl)-2,3-dihydro-benzo[1,4]dioxin-2-yl]-methyl amine] in this work. A melting point of 105 °C was found for `NC[C@H]1COc2ccc(Cl)c(-c3ccccc3Cl)c2O1` (as salt: hydrochloride) [Compound I-70, (2S)-[7-Chloro-8-(2-chloro-phenyl)-2,3-dihydro-benzo[1,4]dioxin-2-yl]-methylamine] in this work. A melting point of 208 to 210 °C was found for `NC[C@H]1COc2ccc(F)c(-c3ccccc3Cl)c2O1` (as salt: hydrochloride) [Compound I-71, (2S)-[8-(2-Chloro-phenyl)-7-fluoro-2,3-dihydro-benzo[1,4]dioxin-2-yl]-methylamine] in this work. A melting point of 65 °C was found for `NC[C@H]1COc2ccc(F)c(-c3ccc(Cl)cc3Cl)c2O1` (as salt: hydrochloride) [Compound I-75, ((2S)-7-Fluoro-8-(2,4-di-chloro-phenyl)-2,3-dihydrobenzo[b][1,4]dioxin-2-yl) methanamine] in this work. A melting point of 184 to 186 °C was found for `COc1ccccc1-c1cc(F)cc2c1OC(CN)O2` (stereo not shown) (as salt: hydrochloride) [Compound I-76, 1-[6-Fluoro-4-(2-methoxyphenyl)-1,3-benzodioxol-2-yl]methanamine] in this work. A melting point of 227 to 229 °C was found for `NCC1Oc2cc(F)cc(-c3ccccc3)c2O1` (stereo not shown) (as salt: hydrochloride) [Compound I-77, 1-(6-Fluoro-4-phenyl-1,3-benzodioxol-2-yl)methanamine] in this work. A melting point of 267 to 270 °C was found for `NCC1Oc2cc(F)cc(-c3cccc(Cl)c3)c2O1` (stereo not shown) (as salt: hydrochloride) [Compound I-78, 1-[4-(3-Chlorophenyl)-6-fluoro-1,3-benzodioxol-2-yl]methanamine] in this work. A melting point of 262 to 264 °C was found for `NCC1Oc2cc(F)cc(-c3ccc(Cl)cc3)c2O1` (stereo not shown) (as salt: hydrochloride) [Compound I-79, 1-[4-(4-Chloro-phenyl)-6-fluoro-1,3-benzodioxol-2-yl]methanamine] in this work.
